Assay results published in EP0096293A1, “N-acetylglucosamine derivatives, process for their preparation and their use to combat malaria” (BEHRINGWERKE Aktiengesellschaft, priority 1982, dated 1983).
Where a name gives a salt, the structure may show the parent alone.

Legend:
[1] = system: P. falciparum; details: findings of Vanderberg et al. (Exp. Parasitol. 1981); cited from earlier work
[2] = system: P. falciparum; assay: Intraerythrocytic growth of malaria parasites (toxicity to the parasite); assay type: cell-based; details: applicant's own finding, contrary to Vanderberg et al.
[3] = system: P. falciparum-Merozoiten; details: synchronous in vitro culture, addition of the sugar; findings of Vanderberg et al. (Exp. Parasitol. 1981); cited from earlier work
[4] = system: P. falciparum-Merozoiten; assay: Invasion of human erythrocytes by P. falciparum merozoites in synchronous in vitro culture; assay type: cell-based; details: compared with other methyl glycosides (methyl gluco-, galacto-, fuco-, mannopyranosides)

Row | Compound | intraerythrozytäre Wachstum der Malaria-Parasiten [1] | intraerythrozytäre Parasiten-Wachstum (toxisch) [2] | Befall von Humanerythrozyten durch P. falciparum-Merozoiten [3] | invasionsinhibierende Wirkung [4]
1 | CC(=O)N[C@H]1C(O)O[C@H](CO)[C@@H](O)[C@@H]1O (stereo partly drawn) [DGlcNAc, N-Acetyl-D-glucosamin] | nicht aber durch N-Acetyl-D-Glucosamin gehemmt | toxisch | gehemmt | 
2 | N[C@H]1C(O)O[C@H](CO)[C@@H](O)[C@@H]1O (stereo partly drawn) [DGlcNH3Cl, D-Glucosaminhydrochlorid] | gehemmt |  | gehemmt | 
3 | C[C@@H]1OC(O)[C@@H](O)[C@H](O)[C@@H]1O (stereo partly drawn) [L-Fucose] | gehemmt | nicht toxisch | gehemmt | 
4 | CO[C@H]1O[C@H](CO)[C@@H](O)[C@H](O)[C@H]1NC(C)=O [α-DGlcNAcOMe, Methyl-2 -acetamido- 2 -desoxy-alpha oder beta-D-glucopyranosid] |  | nicht toxisch |  | stark erhöhte invasionsinhibierende Wirkung
5 | CO[C@@H]1O[C@H](CO)[C@@H](O)[C@H](O)[C@H]1NC(C)=O [β-DGlcNAcOMe, Methyl-2 -acetamido- 2 -desoxy-alpha oder beta-D-glucopyranosid] |  | nicht toxisch |  | stark erhöhte invasionsinhibierende Wirkung
